From paper PMC6684654 (Nature Communications, 2019) come the findings set out here.

Each structure is given as a SMILES string. Converted amounts (≈) assume the structure as drawn. Read-outs that look alike come from different tables or passages of the source.

Format in all cases: cell-based
Test [1] relates to E. coli ATCC25922. Nature of the test: MIC, broth microdilution. Particulars: Escherichia coli. An excerpt: (§1) MIC values were identified through microdilution in sterilized 96-well polypropylene microtiter plates according to the broth microdilution guideline of the Clinical and Laboratory Standards Institute[30]. The test medium was Mueller–Hinton broth (MHB), and the strain concentrations were adjusted to 5 × 10^5 CFU/mL.
For orientation: Dilution methods test growth across graded concentrations, often in twofold steps.

Test [2] concerns E. coli ATCC35218. Nature of the test: MIC, broth microdilution. To be noted: Escherichia coli.
From the text: as §1

Test [3] relates to K. pneumoniae ATCC13883. Kind of test: MIC, broth microdilution. To be noted: Klebsiella pneumoniae.
From the text: as §1

Test [4] concerns NDM-1 E. coli XJ141015. Kind of test: MIC, broth microdilution. Particulars: Escherichia coli, 16 h.
From the text: as §1

Test [5] has as its system NDM-1 E. coli XJ141026. Nature of the test: MIC, broth microdilution. To be noted: Escherichia coli, 16 h.
From the text: as §1

The test system of test [6] is NDM-1 E. coli XJ141047. Nature of the test: MIC, broth microdilution. To be noted: Escherichia coli, 16 h.
From the text: as §1

For test [7], the system named is NDM-1 K. pneumoniae XJ155017. Nature of the test: MIC, broth microdilution. Particulars: Klebsiella pneumoniae, 16 h.
From the text: as §1

For test [8], the system named is NDM-1 K. pneumoniae XJ155018. Kind of test: MIC, broth microdilution. Particulars: Klebsiella pneumoniae, 16 h.
From the text: as §1

Test [9] deals with NDM-1 K. pneumoniae XJ155019. Kind of test: MIC, broth microdilution. To be noted: Klebsiella pneumoniae, 16 h.
From the text: as §1

The subject of test [10] is NDM-1 K. pneumoniae XJ155020. Kind of test: MIC, broth microdilution. To be noted: Klebsiella pneumoniae, 16 h.
From the text: as §1

The test system of test [11] is E. coli ATCC25922. Nature of the test: Antibiotic susceptibility (MIC), automated identification system. Particulars: Supplementary Table 1; for MIC: Escherichia coli, ATCC25922. An excerpt:
(§2) Clinical isolate strains were identified and screened by the Phoenix 100 automated bacterial identification system to rapidly detect antimicrobial resistance. Total DNA was extracted by the TIANamp Bacteria DNA Kit according to the manufacturer’s protocol. The presence of blaNDM-1 was confirmed using a diagnostic kit for NDM-1 (Puruikang Bio Inc., Shenzhen, China) based on fluorescent quantitative polymerase chain reaction assay. According to the instruction, Ct values of less than 37 were considered positive.

The test system of test [12] is K. pneumoniae ATCC13883. Described as above. To be noted: Supplementary Table 2; for MIC: Klebsiella pneumoniae, ATCC13883.
From the text: as §2

In test [13] the test system is NDM-1 E. coli XJ141015. The description is as above. Particulars: Supplementary Table 1; for MIC: Escherichia coli.
From the text: as §2

Test [14] deals with NDM-1 E. coli XJ141026. The description is as above. To be noted: Supplementary Table 1; for MIC: Escherichia coli.
From the text: as §2

In test [15] the test system is NDM-1 E. coli XJ141047. The description is as above. To be noted: Supplementary Table 1; for MIC: Escherichia coli.
From the text: as §2

In test [16] the test system is NDM-1 K. pneumoniae XJ155017. The test is described as above. To be noted: Supplementary Table 2; for MIC: Klebsiella pneumoniae.
From the text: as §2

Test [17] deals with NDM-1 K. pneumoniae XJ155018. Described as above. Particulars: Supplementary Table 2; for MIC: Klebsiella pneumoniae.
From the text: as §2

For test [18], the system named is NDM-1 K. pneumoniae XJ155019. Described as above. To be noted: Supplementary Table 2; for MIC: Klebsiella pneumoniae.
From the text: as §2

Test [19] has as its system NDM-1 K. pneumoniae XJ155020. The test is described as above. To be noted: Supplementary Table 2; for MIC: Klebsiella pneumoniae.
From the text: as §2

Setting [20] is: ATCC25922, MHB, 5 × 10^5 CFU/mL, 16 h, 37 °C, read-out: MIC.
[21] abbreviates: ATCC35218, MHB, 5 × 10^5 CFU/mL, 16 h, 37 °C, read-out: MIC.
Where [22] appears, read: ATCC13883, MHB, 5 × 10^5 CFU/mL, 16 h, 37 °C, read-out: MIC.
[23] abbreviates: MHB, 5 × 10^5 CFU/mL, 37 °C, read-out: MIC.

In general, MIC refers to the lowest concentration found to suppress growth. `CCN1CCN(C(=O)N[C@@H](C(=O)N[C@@H]2C(=O)N3[C@@H]2SC(C)(C)[C@@H]3C(=O)O)c2ccccc2)C(=O)C1=O` [Piperacillin]: the minimum inhibitory concentration (MIC) in test [1] (setting [20]) is 2 µg/mL (≈ 3.86 µM); in test [2] (setting [21]) it was more than 256 µg/mL; in test [3] (setting [22]), 8 µg/mL (≈ 15.5 µM); in test [4] (setting [23]), more than 256 µg/mL; in test [5] (setting [23]), more than 256 µg/mL; in [6] (setting [23]), more than 256 µg/mL. Also, the MIC in [7] (setting [23]) was more than 256 µg/mL; in [8] (setting [23]), more than 256 µg/mL; in test [9] (setting [23]) it was more than 256 µg/mL; in test [10] (setting [23]), more than 256 µg/mL; in [11], not above 4 µg/mL; in test [12], 8 µg/mL (≈ 15.5 µM). Also, the MIC in [13], in [14], in test [15], in test [16], in test [17] and in [18] was more than 64 µg/mL in each case. Further, the minimal inhibitory concentration (MIC) in [19] is more than 64 µg/mL. The “susceptibility class (MIC)” value in test [11] is recorded as “S”; in [12], “S”; in test [13] it was “R”; in [14], “R”; in test [15] it was “R”; in test [16], “R”. The “susceptibility class (MIC)” value in [17], in test [18] and in test [19] was “R” throughout.

Turning to `CO/N=C(\C(=O)N[C@@H]1C(=O)N2C(C(=O)O)=C(COC(C)=O)CS[C@H]12)c1csc(N)n1` [Cefotaxime], the minimum inhibitory concentration (MIC) in [1] (ATCC25922, 16 h) is less than 0.125 µg/mL; in [2] (ATCC35218, 16 h), less than 0.125 µg/mL; in test [3] (ATCC13883, 16 h) it was less than 0.125 µg/mL; in test [4], more than 256 µg/mL; in test [5] it was more than 256 µg/mL; in test [6], more than 256 µg/mL. In addition, the MIC was more than 256 µg/mL in test [7]; more than 256 µg/mL in test [8]; more than 256 µg/mL in [9]; more than 256 µg/mL in [10]; not above 1 µg/mL in test [11]; not above 1 µg/mL in test [12]. In addition, the minimal inhibitory concentration (MIC) in test [13], in test [14], in [15], in [16], in test [17] and in [18] was more than 32 µg/mL each time. This compound gave an MIC in [19] of more than 32 µg/mL. Further, the “susceptibility class (MIC)” value in test [11] is “S”; in test [12] it was “S”; in test [13] it was “R”; in test [14] it was “R”; in [15], “R”; in test [16], “R”. For the same compound, the “susceptibility class (MIC)” value in test [17], in [18] and in [19] was “R” in each case.

Turning to `Cc1onc(-c2ccccc2)c1C(=O)N[C@@H]1C(=O)N2[C@@H]1SC(C)(C)[C@@H]2C(=O)O` [Oxacillin], the MIC in test [1] (setting [20]) was 64 µg/mL (≈ 159 µM); in test [2] (setting [21]), 256 µg/mL (≈ 638 µM); in test [3] (setting [22]) it was 64 µg/mL (≈ 159 µM); in [4] (setting [23]), more than 256 µg/mL; in [5] (setting [23]), more than 256 µg/mL; in test [6] (setting [23]), more than 256 µg/mL. The minimal inhibitory concentration (MIC) in test [7] (setting [23]), in test [8] (setting [23]), in test [9] (setting [23]) and in [10] (setting [23]) was more than 256 µg/mL each time.
